Source: ChEMBL document CHEMBL3507680, “University of Dundee, Gates Library screen for HepG2 cell viability”

Assay: Human HepG2 cell viability assay in 384 well format
Format: toxicity, cell-based
Design: dose 125 nL, time 70.5 hour; cytotoxicity at 70.5 h: concentration not given beside the values
Conditions: HepG2 cells, read-out: Inhibition

Row | Compound | cytotoxicity at 70.5 h [%]
1 | O=C(c1ccccc1OC1CCCC1)N1CCCC(n2cncn2)C1 (stereo not drawn) | -9.06
2 | Cc1nn(C)c(Cl)c1C1CCCN1C(=O)c1cnn(C)c1C1CC1 (stereo not drawn) | -14.5
3 | CN(C)c1ccc(CNC(=O)NCCc2cccs2)cn1 | -12.3
4 | CN(C)c1ccc(CNC(=O)NCCc2ccccn2)cn1 | -12.8
5 | CCn1cnnc1CNC(=O)N(C)Cc1ccc2c(c1)OCO2 | -10.2
6 | COCCN(Cc1nc2c(cnn2C)c(=O)[nH]1)C(C)c1ccccc1 (stereo not drawn) | -2.95
7 | O=C(c1cccc2c1OCCO2)N1CCCC(n2cccn2)C1 (stereo not drawn) | -8.22
8 | CCCOc1cccc(C(=O)N2CCCC(n3cncn3)C2)c1 (stereo not drawn) | -13.7
9 | O=C(c1cnc(-c2ccccn2)s1)N1CCCC(n2cccn2)C1 (stereo not drawn) | 10.2
10 | c1nc(N2CCCC(Cn3cncn3)C2)c2sccc2n1 (stereo not drawn) | -2.8
11 | Cc1nc(C)n(CC2CCCCN2c2ncnc3ccsc23)n1 (stereo not drawn) | -11.9
12 | Cc1cnn(CC2CCCCN2C(=O)c2cccnc2N(C)C)c1 (stereo not drawn) | 9.64
13 | Cc1nccn1CCCC(=O)N1CCC(N(C)c2cccnn2)CC1 | -7.52
14 | Cc1nn(C)c(Cl)c1C1CCCN1C(=O)c1csnn1 (stereo not drawn) | -4.32
15 | Cc1nn(C)c(Cl)c1C1CCCN1C(=O)c1cccn1C (stereo not drawn) | -10.5
16 | Cc1ncsc1C(=O)N1CCCC1c1c(C)nn(C)c1Cl (stereo not drawn) | -13.8
17 | N#Cc1cc(NS(=O)(=O)c2cc(C(=O)O)cc(Cl)c2Cl)ccc1F | 0.738
18 | Cc1c(F)cc(C(=O)O)cc1S(=O)(=O)Nc1ccc(F)c(C#N)c1 | -9.42
19 | Cc1nn(C)c(C)c1C1CCCN1C(=O)c1nccnc1N (stereo not drawn) | -8.84
20 | CN(Cc1nnc2n1CCC2)C(=O)c1ccc2c(c1)OCCCO2 | 18.9

Row | Compound | cytotoxicity at 70.5 h [%]
21 | Cc1cc(C)n(CC2CCCN2CC(=O)N(C)Cc2ccc(C)o2)n1 (stereo not drawn) | 18
22 | Cc1cc(C)n(CC2CCCN2C(=O)c2c(C)noc2C)n1 (stereo not drawn) | 18.5
23 | O=C(NCCNc1ncccn1)C1CC(=O)N(C2CCCC2)C1 (stereo not drawn) | -6.36
24 | CC(C)CN1CC(C(=O)NCCNc2ncccn2)CC1=O (stereo not drawn) | -0.397
25 | O=C(NCCNc1ncccn1)C1CC(=O)N(CC2CC2)C1 (stereo not drawn) | 16.4
26 | CN(Cc1nnc2n1CCC2)C(=O)CCc1ccc2c(c1)OCO2 | -7.61
27 | CCCS(=O)(=O)NC(C)C(=O)NCc1ccnc(N2CCCC2)c1 (stereo not drawn) | -3.25
28 | COc1ccccc1NC(=O)NCCCn1nc2ccccn2c1=O | -3.26
29 | CC1CCCCN1CCNC(=O)c1ccn(-c2ccccc2)n1 (stereo not drawn) | 13.6
30 | O=C(NCCN1CCCCC1)c1ccn(-c2ccc(F)cc2)n1 | 0.39
31 | O=C(CCNc1ncccn1)N1CCCN(c2nccs2)CC1 | 15.2
32 | CNS(=O)(=O)c1cccc(CNc2ncccn2)c1 | -1.46
33 | CN(Cc1nnc2n1CCC2)C(=O)Cc1ccc2c(c1)CCC2 | -6.67
34 | Cc1csc(N2CCN(C(=O)CCCNc3ncccn3)CC2)n1 | -5.37
35 | O=C(NCCNc1ncccn1)C1CC(=O)N(Cc2ccccn2)C1 (stereo not drawn) | 17.5
36 | CC(C)COCC(NC(=O)c1ccncc1)c1ccco1 (stereo not drawn) | -4.28
37 | Cc1cnc(C(=O)NC(COCC(C)C)c2ccco2)cn1 (stereo not drawn) | -0.693
38 | CCN1CCN(CCNC(=O)c2ccn(-c3ccc(F)cc3)n2)CC1 | -3.79
39 | CC(=O)N1CCN(C(=O)CN2CCCC2Cn2nc(C)cc2C)CC1 (stereo not drawn) | 11.5
40 | Cn1nc2c(cc1=O)CN(CCN1CCCC1=O)CC2 | -1.09

Row | Compound | cytotoxicity at 70.5 h [%]
41 | Cc1csc(N2CCN(C(=O)c3ccc(C)s3)CC2)n1 | 5.75
42 | Cc1cc(C)n(CC2CCCN2C(=O)Cc2c(C)nc(C)[nH]c2=O)n1 (stereo not drawn) | -13.8
43 | CC(O)CN1CCC(CNCc2cccc(C(=O)N(C)C)c2)CC1 (stereo not drawn) | 1.45
44 | CC(Cn1cccn1)NCc1csc(Cc2ccccc2)n1 (stereo not drawn) | 0.563
45 | Cc1nc(C2CCCN2CCCc2nc3ccccc3o2)no1 (stereo not drawn) | -1.3
46 | c1ccc(CN2CCCC(Cn3cncn3)C2)nc1 (stereo not drawn) | 20.8
47 | COc1ccccc1OCCC(=O)N1CCCCC1c1nccs1 (stereo not drawn) | 0.499
48 | O=C(NCCNc1ncccn1)N1CCN(c2nccs2)CC1 | -2.7
49 | Cc1cc(C2CCCN2Cc2nc3ccccc3o2)on1 (stereo not drawn) | 1.19
50 | CCOc1ccc(S(=O)(=O)NC(=O)CC2CCCO2)cc1 (stereo not drawn) | 17.8
51 | CS(=O)(=O)CCNC(=O)c1ccc(-c2ccco2)[nH]c1=O | 1.54
52 | Cc1nc(-c2ccccc2)n(CC(=O)NC(C)C)n1 | -1.29
53 | c1csc(-c2noc(CN3CCCCC3Cn3cccn3)n2)c1 (stereo not drawn) | -1.63
54 | O=C1COc2ccc(C(=O)N3CCCC(n4ccnc4)C3)cc2N1 (stereo not drawn) | 2.98
55 | Cc1cc(C)n2cc(CN3CCCC3Cn3nc(C)nc3C)nc2n1 (stereo not drawn) | -6.16
56 | CCc1nc(C2CCCN2C(=O)c2ccc3c(c2)nnn3CC)no1 (stereo not drawn) | -3.25
57 | CCc1nc(C2CCCN2C(=O)c2ccc3c(c2)nc(C)n3C)no1 (stereo not drawn) | -8.32
58 | Cc1cnn(C2CCCN(C(=O)Cc3ccc(-n4cccn4)cc3)C2)c1 (stereo not drawn) | -3.4
